The record followed here is patent US7235548B2, “Compounds and their use as positive AMPA receptor modulators” (NeuroSearch A/S, priority 1998, dated 2007).

Series [1] deals with ionotropic quisqualate (AMPA) receptors. The series is described as follows: In vitro inhibition of 3H-AMPA binding. Conditions: 5 nM 3H-AMPA, rat cerebral cortex membranes, 30 min at 2° C.; read-out: IC50 (concentration of the test substance which inhibits the specific binding of 3H-AMPA by 50%). The text has this: L-glutamate (GLU) is the major excitatory neurotransmitter in the mammalian central nervous system. From electrophysiological- and binding studies, there appear to be at least three subtypes of GLU receptors, tentatively named N-methyl-D-aspartate (NMDA)-, quisqualate- and kainate receptors. GLU receptor subtypes sensitive to quisqualate and kainate as a group are often referred to as non-NMDA receptors. Receptor binding studies using the labelled agonists ^3H-AMPA (α-amino-3-hydroxy-5-methyl-4-isoxazolepropionic acid) (for quisqualate receptors) and ^3H-kainate (for kainate receptors) have shown different antagonist selectivities and regional distribution. AMPA has been known for several years to be a potent and selective agonist at the traditionally named quisqualate receptors. Activation of quisqualate receptors by AMPA is associated with Na^+ influx and K^+ efflux leading to depolarization.
The non-NMDA receptors have recently been reclassified to include the quisqualate activated metabotropic receptor type, linked to the inositol triphosphate and diacylglycerate metabolism. […] Selective activation of the metabotropic type has been claimed for trans-ACPD. Recently, the potent and competitive non-NMDA receptor antagonists CNQX and NBQX have been described, and CNQX have been reported not to block the effect of quisqualate at the metabotropic receptor subtype. ^3H-AMPA is a selective radioligand for labelling the ionotropic quisqualate (AMPA) receptors.
Preparations are performed at 0–4° C. unless otherwise indicated. Cerebral cortex from male Wistar rats (150–200 g) is homogenized for 5–10 sec in 20 ml Tris-HCl (30 mM, pH 7.4) using an Ultra-Turrax homogenizer. The suspension is centrifuged at 27,000×g for 15 min and the pellet is washed three times with buffer (centrifuged at 27,000×g for 10 min). The washed pellet is homogenized in 20 ml of buffer and incubated on a water bath (37° C.) for 30 min to remove endogenous glutamate and then centrifuged for 10 min at 27,000×g. The pellet is then homogenized in buffer and centrifuged at for 10 min at 27,000×g. The final pellet is resuspended in 30 ml buffer and the preparation is frozen and stored at −20° C.
The membrane preparation is thawed and centrifuged at 2° C. for 10 min at 27,000×g for 10 min. The pellet is washed twice with 20 ml 30 mM Tris-HCl containing 2.5 mM CaCl2, pH 7.4 using an Ultra-Turrax homogenizer and centrifuged for 10 min at 27,000×g. The final pellet is resuspended in 30 mM Tris-HCl containing 2.5 mM CaCl2 and 100 mM KSCN, pH 7.4 (100 ml per g of original tissue) and used for binding assays. Aliquots of 0.5 (0.2) ml are added to 25 (20) μl of test solution and 25(20) μl of ^3H-AMPA (5 nM, final concentration), mixed and incubated for 30 min at 2° C. Non-specific binding is determined using L-glutamate (0.6 mM, final concentration). After incubation the 550 μl samples are added 5 ml of ice-cold buffer and poured directly onto Whatman GF/C glass fibre filters under suction and immediately washed with 5 ml of ice-cold buffer. The 240 μl samples are filtered over glass fibre filter using a Skatron cell harvrester. The filters are washed with 3 ml ice-cold buffer. The amount of radioactivity on the filters is determined by conventional liquid scintillation counting. Specific binding is total binding minus non-specific binding.
The test value will be given as the IC50 (the concentration (μM) of the test substance which inhibits the specific binding of ^3H-AMPA by 50%)

The test system of a further series is AMPA receptors. The series can be described thus: AMPA evoked single neuron spike activity in rat hippocampus (iontophoretic application of AMPA), in vivo. The note with it: 10 mg kg^−1 i.v., rat hippocampus. The source says:
Evaluation of the in vivo effects of positive AMPA modulators (PAMs) on the AMPA evoked spike activity in rat hippocampus. Hippocampal single neuron spike activity is strongly influenced by excitatory input, and iontophoretic application of AMPA induces spike activity in vivo in a dose-dependent manner ([…] et al. 1998). […] PAMs potentate AMPA receptor activation in vitro, and if this mechanism also operates in vivo, the i.v. injection of an PAM should enhance AMPA evoked spike activity. Thus, the aim of this study was to test the in vivo effect of a group of in vitro active PAMs. This have been done by studying their ability to enhances AMPA evoked spike activity after i.v. administration. Experiments were performed on male Wistar rats (M & B, Denmark) weighing 280-380 g, housed in two per cage with free access to food and water. […] Additional anaesthetic was given i.v. if the rat responded to a pinch of the back foot. The trachea was cannulated and the rats were placed in a stereotaxic frame and ventilated by a rodent ventilator (Ugo Basile, Comerio-Varese, Italy). Core body temperature was maintained at 37.5° C. by a DC heating pad. The left and dorsal part of the parietal bone was removed by craniotomy and the dura was withdrawn exposing the pia mater and underlying brain, covered with 0.9% NaCl. AMPA (Sigma, USA) was dissolved at 10 mM in 0.2 M NaCl. NMDA (Sigma, USA) was dissolved at 100 mM in 100 mM NaCl. Both solutions were adjusted to pH 7.5-8.0 with NaOH. COMPOUND 61 was dissolved in 200 mM CH3SO3^- Na^+ at a contration of 10 mM for iontophoretic application ([…]) and in isotonic glucose (278 mM) for i.v. administration. Cyclothiazide, COMPOUND 63, COMPOUND 56, COMPOUND 115 and COMPOUND 114 were all dissolved at in 5% chremophore solution at a concentration of 5 mg ml^-1. Evoked neuronal spike activity was analyzed on-line by a computer, saving single spikes and time of event. Neuronal spike activity (number of action potentials s^-1) was monitored on a pulse rate histogram together with indicators for AMPA, COMPOUND 61 and vehicle application. Extracellular recordings of single hippocampal neuron spikes were made with five-barrel glass microelectrodes (5B120F-6, World Precision Instruments Inc., Sarasota, Fla., USA) with a tip diameter of 10-12 μm. The individual barrels were filled with 5 M NaCl (recording), 400 mM NaCl (current balancing), 10 mM COMPOUND 61 in 200 mM CH3SO3^- Na^+ (pH 4.7), 200 mM CH3SO3^- Na^+ (pH 4.7, Vehicle), and the last barrel was filled with the AMPA. Experiments were performed on hippocampal neurons (A=5.5-6.5 mm, L=1.5-2.0 mm, H=2.0-3.0 mm, according to Paxinos & Watson, 1986). Neuronal spike activity was evoked by iontophoretic application of AMPA for periods of 10 to 15 s with 1.5 min intervals. Single neuron spike activity was amplified 5000 times with a bandwidth of 0.3 and 3 kHz (CyberAmp 320 with a Al 402 x50 smartprobe, Axon Instruments, California, USA). On-line and off-line analyses were performed by the Spike2 program with a 1401 plus interface (Cambridge Electronic Design Limited, England). The computer program also recorded mean arterial blood pressure and monitored and controlled iontophoretic application. AMPA was ejected into hippocampus in regular cycles of 100-105 s. […] Recording of neuronal spike activity was continued for at least 45 min after intravenous injection. The PAM reactivity was tested by microiontophoretic application of COMPOUND 61 (20 nA, FIG.).

Broadly, the melting point is the temperature, or range, at which the solid turns liquid. Take `CC1NC(=O)c2ccccc2O1` (centres unmarked) [Compound 3, 2-Methyl-3,4-dihydro-1,3-benzoxazine-4-one]: the melting point is 124 to 126 °C.

Take `O=C1NC(c2ccccc2)Oc2ccccc21` (centres unmarked) [Compound 4, 2-Phenyl-3,4-dihydro-1,3-benzoxazine-4-one]: the melting point was in the range of 157 to 160 °C.

Take `CCC1(C)NC(=O)c2ccccc2O1` (centres unmarked) [Compound 8, 2-Ethyl-2-methyl-3,4-dihydro-1,3-benzoxazine-4-one]: the melting point lay within 76 to 78 °C.

Consider `CC(=O)c1ccc2c(c1)S(=O)(=O)NC(C1CCCCC1)N2` (centres unmarked) [Compound 13, 3-Cyclohexyl-7-acetyl-1,2,3,4-tetrahydro-1,2,4-benzothiadiazine-1,1-dioxide], for which the IC50 in series [1] was 22 µM.

For the compound `CC(=NO)c1ccc2c(c1)S(=O)(=O)NC(C1CCCCC1)N2` (centres unmarked) [Compound 14, 3-Cyclohexyl-7-(1-hydroxyiminoethyl)-1,2,3,4-tetrahydro-1,2,4-benzothiadiazine-1,1-dioxide], the IC50 in series [1] stood at 45 µM.

As for `NC(=O)c1ccc2c(c1)S(=O)(=O)NC(C1CCCCC1)N2` (centres unmarked) [Compound 15, 3-Cyclohexyl-7-carbamoyl-1,2,3,4-tetrahydro-1,2,4-benzothiadiazine-1,1-dioxide], the IC50 in series [1] amounted to 39 µM.

As to `CC(=O)Nc1ccccc1-c1ccc2c(c1)S(=O)(=O)NC(C1CCCCC1)N2` (centres unmarked) [Compound 19, 3-Cyclohexyl-7-(2′-acetamidophenyl)-1,2,3,4-tetrahydro-1,2,4-benzothiadiazine-1,1-dioxide], the melting point fell in the range of 245 to 249 °C.

With `COc1cc(C(F)(F)F)ccc1-c1ccc2c(c1)S(=O)(=O)NC(C1CCCCC1)N2` (centres unmarked) [Compound 22, 3-Cyclohexyl-7-(2′-methoxy-4′-trifluoromethylphenyl)-1,2,3,4-tetrahydro-1,2,4-benzothiadiazine-1,1-dioxide], the melting point is 255 to 257 °C.

With `CN(C)S(=O)(=O)c1ccccc1-c1ccc2c(c1)S(=O)(=O)NC(C1CCCCC1)N2` (centres unmarked) [Compound 24, 3-Cyclohexyl-7-(2′-(N,N-dimethylsulfamoyl)phenyl)-1,2,3,4-tetrahydro-1,2,4-benzothiadiazine-1,1-dioxide], the melting point fell in the range of 290 to 300 °C.

As for `O=S1(=O)NC(C2CCCCC2)Nc2ccc(-c3cccc(O)c3)cc21` (centres unmarked) [Compound 27, 3-Cyclohexyl-7-(3′-hydroxyphenyl)-1,2,3,4-tetrahydro-1,2,4-benzothiadiazine-1,1-dioxide], the melting point lay in the range of 238 to 246 °C.

Regarding `CS(=O)(=O)Nc1ccc2c(c1)S(=O)(=O)NC(C1CCCCC1)N2` (centres unmarked) [Compound 39, 3-Cyclohexyl-7-methylsulfonylamino-1,2,3,4-tetrahydro-1,2,4-benzothiadiazine-1,1-dioxide], the melting point lay within 255 to 258 °C.

As to `O=[N+]([O-])c1ccc2c(c1)S(=O)(=O)NC(C1CCCCC1)N2` (centres unmarked) [Compound 40, 3-Cyclohexyl-7-nitro-1,2,3,4-tetrahydro-1,2,4-benzothiadiazine-1,1-dioxide], the melting point was in the range of 209 to 211 °C.

Take `NS(=O)(=O)c1ccc2c(c1)S(=O)(=O)NC(C1CCCCC1)N2` (centres unmarked) [Compound 44, 3-Cyclohexyl-7-sulfamoyl-1,2,3,4-tetrahydro-1,2,4-benzothiadiazine-1,1-dioxide]: the IC50 in series [1] was 3.5 µM.

Consider `O=S1(=O)NC(C2CCCC2)Nc2ccc(S(=O)(=O)N3CCCCC3)cc21` (centres unmarked) [Compound 55, 3-Cyclopentyl-7-piperidinosulfonyl-1,2,3,4-tetrahydro-1,2,4-benzothiadiazine-1,1-dioxide], for which the melting point fell in the range of 258 to 260 °C.

In turn, `CN1C(C2CCCCC2)Nc2ccc(S(=O)(=O)N3CCOCC3)cc2S1(=O)=O` (centres unmarked) [Compound 85, 3-Cyclohexyl-2-methyl-7-morpholinosulfonyl-1,2,3,4-tetrahydro-1,2,4-benzothiadiazine-1,1-dioxide] yielded a melting point of 243 to 245 °C.

`CN1c2ccc(S(=O)(=O)N3CCOCC3)cc2S(=O)(=O)NC1C1CCCCC1` (centres unmarked) [Compound 86, 3-Cyclohexyl-4-methyl-7-morpholinosulfonyl-1,2,3,4-tetrahydro-1,2,4-benzothiadiazine-1,1-dioxide] returned a melting point of 207 to 210 °C.

For the compound `NS(=O)(=O)c1cc(Br)c2c(c1)S(=O)(=O)NC(C1CCCCC1)N2` (centres unmarked) [Compound 101, 5-Bromo-3-cyclohexyl-7-sulfamoyl-1,2,3,4-tetrahydro-1,2,4-benzothiadiazine-1,1-dioxide], the melting point lay within 254 to 258 °C.

Take `O=S1(=O)NC(C2CCCCC2)Nc2cc3c(cc21)OCCO3` (centres unmarked) [Compound 118, 3-cyclohexyl-6,7-ethylenedioxy-1,2,3,4-tetrahydro-1,2,4-benzothiadiazine-1,1-dioxide]: the melting point fell in the range of 196 to 200 °C.

In the case of `O=S1(=O)NC(C2CCCCC2)Nc2ccc3c(c21)OCCO3` (centres unmarked) [Compound 122, 3-Cyclohexyl-7,8-ethylenedioxy-1,2,3,4-tetrahydro-1,2,4-benzothiadiazine-1,1-dioxide], the melting point is 268 to 270 °C.

`NS(=O)(=O)c1cc2c(cc1Cl)NC(C1CC3C=CC1C3)NS2(=O)=O` (centres unmarked) [cyclothiazide, reference compound]: the “AMPA evoked spike activity” value in the series with AMPA receptors is “did not enhance”.
